Where [1] appears, read: solvent system SS 1: sec-BuOH-1% TFA/water (1:1).
The mark [2] stands for this setting: solvent system SS 3: Hexane-acetone-acetonitrile (5:2:3).
The mark [3] stands for this setting: solvent system SS 4: EtOAc-n-BuOH-water (2:1:3).
Where [4] appears, read: solvent system SS 5: EtOAc-n-BuOH-1% aq. TFA (2:1:3).
Setting [5] is: solvent system SS 6: Hexane-EtOAc-MeOH-water (6:1:6:1).
[6] abbreviates: solvent system Sec-BuOH-water (1:1).

Where two headings read alike, the source gives them in different places.

Regarding `C=C(C)[C@@H]1CCC(C)=C[C@H]1c1c(O)cc(CCCCC)cc1O` [CBD, cannabidiol], the “K, partition coefficient (ratio of upper phase to lower phase)” value under setting [1] stood at 2.7; the “K, partition coefficient (ratio of upper phase to lower phase)” value (solvent system SS 2: n-BuOH-1% aq. TFA (1:1)) worked out at 8.6; the “K, partition coefficient (ratio of upper phase to lower phase)” value under setting [2] came to 0.99; the “K, partition coefficient (ratio of upper phase to lower phase)” value under setting [3] came out at 4.2; the “K, partition coefficient (ratio of upper phase to lower phase)” value under setting [4] was found to be 16.5; the “K, partition coefficient (ratio of upper phase to lower phase)” value under setting [5] was 0.5. Further, the “K, partition coefficient (ratio of upper phase to lower phase)” value under setting [6] is listed as 5.5.

Regarding `CCCCCc1cc(O)c2c(c1)OC(C)(C)[C@@H]1CCC(C)=C[C@@H]21` [THC, Δ9-Tetrahydrocannabinol], the “K, partition coefficient (ratio of upper phase to lower phase)” value reads like this: under setting [1], 6.14; under setting [2], 0.56; under setting [3], 6.55; under setting [4], 10.9; under setting [5], 2.4; under setting [6], 9.4. Also, the “K, partition coefficient (ratio of upper phase to lower phase)” value (solvent system n-BuOH-water (1:1)) is 33.
